Three compounds from ChEMBL document CHEMBL4152208, “Synthesis and structure-activity relationships of quinolinone and quinoline-based P2X7 receptor antagonists and their anti-sphere formation activities in glioblastoma cells” (Eur J Med Chem, 2018) can be followed below.

Data set [1] deals with P2X purinoceptor 1 (Rattus norvegicus, UniProt P47824). Nature of the data set: Antagonist activity at wild type His6 tagged rat P2X1 receptor expressed in Xenopus laevis oocytes assessed as inhibition of alphabeta-me ATP-induced calcium flux at -60 mV holding potential by two electrode voltage clamp method. Type of data set: cell-based. For orientation: A change in cytosolic calcium serves as a functional read-out for many receptors and channels.

Data set [2] deals with T1, P2X purinoceptor 1 (Rattus norvegicus, UniProt P47824).
T1 sequence (P47824 whole entry): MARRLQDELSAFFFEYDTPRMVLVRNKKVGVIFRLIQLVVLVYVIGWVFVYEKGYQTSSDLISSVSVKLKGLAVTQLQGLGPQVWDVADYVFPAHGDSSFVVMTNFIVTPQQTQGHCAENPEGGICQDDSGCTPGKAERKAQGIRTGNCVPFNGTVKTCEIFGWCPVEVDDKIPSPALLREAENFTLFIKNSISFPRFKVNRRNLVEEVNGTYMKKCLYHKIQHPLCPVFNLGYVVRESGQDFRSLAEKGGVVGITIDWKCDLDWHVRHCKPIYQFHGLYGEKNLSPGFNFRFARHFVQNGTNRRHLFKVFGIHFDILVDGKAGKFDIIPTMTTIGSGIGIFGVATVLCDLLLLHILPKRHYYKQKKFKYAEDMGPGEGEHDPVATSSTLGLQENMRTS
Nature of the data set: Antagonist activity at P2X1 receptor in rat vas deferens assessed as inhibition of alphabeta me-ATP-induced response.

Data set [3] deals with T2, P2X purinoceptor 7 (Homo sapiens) (UniProt Q99572).
T2 sequence (whole entry): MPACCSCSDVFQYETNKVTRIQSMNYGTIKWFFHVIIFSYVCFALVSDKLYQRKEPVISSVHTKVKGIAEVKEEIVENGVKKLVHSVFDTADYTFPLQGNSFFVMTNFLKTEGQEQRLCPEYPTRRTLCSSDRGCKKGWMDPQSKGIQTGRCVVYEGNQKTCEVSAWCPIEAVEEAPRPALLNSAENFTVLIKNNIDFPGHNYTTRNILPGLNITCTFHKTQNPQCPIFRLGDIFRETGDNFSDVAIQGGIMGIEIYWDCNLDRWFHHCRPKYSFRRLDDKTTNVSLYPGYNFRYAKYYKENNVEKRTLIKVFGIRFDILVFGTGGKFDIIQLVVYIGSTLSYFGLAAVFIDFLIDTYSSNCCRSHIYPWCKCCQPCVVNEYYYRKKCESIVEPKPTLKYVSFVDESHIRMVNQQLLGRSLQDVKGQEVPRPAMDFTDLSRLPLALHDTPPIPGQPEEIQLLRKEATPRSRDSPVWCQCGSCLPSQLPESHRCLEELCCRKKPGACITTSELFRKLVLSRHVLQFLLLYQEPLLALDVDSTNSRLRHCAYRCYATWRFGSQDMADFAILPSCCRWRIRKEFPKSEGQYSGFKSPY
The experiment in a line: Antagonist activity at human P2X7 receptor expressed in HEK293 cells assessed as inhibition of BzATP-induced EtBr uptake at 10 uM after 2 hrs by fluorescence assay relative to control. The class given is cell-based.

In data set [4] the target is T3, P2X purinoceptor 7 (Homo sapiens, UniProt Q99572).
T3 sequence (Q99572 whole entry): T2 sequence (whole entry)
The experiment in a line: Antagonist activity at P2X7 in LPS/IFN gamma differentiated human THP-1 cells assessed as inhibition of BzATP-induced IL-1beta release preincubated for 30 mins followed by BzATP stimulation for 30 mins by ELISA. The class given is cell-based.

The nature of data set [5]: Effective permeability of the compound at 50 uM after 4 hrs by BBB-PAMPA method. The class given is ADME. The note with it: read-out: Peff. Background: The PAMPA barrier holds no transporters, so it reflects passive diffusion.
Data set [6] addresses T2, P2X purinoceptor 7 (Homo sapiens). Nature of the data set: Antagonist activity at human P2X7 receptor expressed in HEK293 cells assessed as inhibition of BzATP-induced EtBr uptake at 1 uM after 2 hrs by fluorescence assay relative to control. The class given is cell-based.
The species named for data set [7] is Homo sapiens. The experiment in a line: Antiproliferative activity against human TS15-88 cells at 50 uM after 24 hrs by MTS assay. Type of data set: functional, cell-based. For orientation: Tetrazolium assays rely on reduction of a dye to a coloured formazan, in cell work by metabolically active cells.
Data set [8] is described as follows: Metabolic stability in human liver microsomes assessed as parent compound remaining at 1 uM up to 30 mins in presence of NADPH by LC-MS/MS analysis. The conditions noted are these: read-out: Stability. Type of data set: ADME, microsome.
Data set [9] in a line: Kinetic solubility of the compound in PAMPA buffer at 12.5 uM by nepheolometry method. The class given is physicochemical.
A short description of data set [10]: Kinetic solubility of the compound in PAMPA buffer at 50 uM by nepheolometry method. The class given is physicochemical.
Data set [11] is filed under the species Homo sapiens. The experiment in a line: Inhibition of neurosphere formation in human TS15-88 cells assessed as decrease in sphere size at 50 uM after 5 days by microscopic analysis relative to control. The class given is functional.
A short description of data set [12]: Metabolic stability in rat liver microsomes assessed as parent compound remaining at 1 uM up to 30 mins in presence of NADPH by LC-MS/MS analysis. Type of data set: ADME, microsome. The conditions noted are these: read-out: Stability.
A short description of data set [13]: Cytotoxicity against HEK293 cells expressing human P2X7 receptor assessed as cell survival at 10 uM by MTT assay relative to control. The conditions noted are these: read-out: Survival. The class given is cell-based.
Data set [14] in a line: Kinetic solubility of the compound in PAMPA buffer at 25 uM by nepheolometry method. The class given is physicochemical.
The target of data set [15] is T3, P2X purinoceptor 7. The experiment in a line: Antagonist activity at human P2X7 receptor expressed in HEK293 cells assessed as inhibition of BzATP-induced EtBr uptake after 2 hrs by fluorescence assay relative to control. The class given is cell-based.
Data set [16] can be described thus: Metabolic stability in mouse liver microsomes assessed as parent compound remaining at 1 uM up to 30 mins in presence of NADPH by LC-MS/MS analysis. Type of data set: ADME, microsome. The conditions noted are these: read-out: Stability.
For a further data set, the target named is T4, P2X purinoceptor 3 (Rattus norvegicus, UniProt P49654).
T4 sequence (P49654 whole entry): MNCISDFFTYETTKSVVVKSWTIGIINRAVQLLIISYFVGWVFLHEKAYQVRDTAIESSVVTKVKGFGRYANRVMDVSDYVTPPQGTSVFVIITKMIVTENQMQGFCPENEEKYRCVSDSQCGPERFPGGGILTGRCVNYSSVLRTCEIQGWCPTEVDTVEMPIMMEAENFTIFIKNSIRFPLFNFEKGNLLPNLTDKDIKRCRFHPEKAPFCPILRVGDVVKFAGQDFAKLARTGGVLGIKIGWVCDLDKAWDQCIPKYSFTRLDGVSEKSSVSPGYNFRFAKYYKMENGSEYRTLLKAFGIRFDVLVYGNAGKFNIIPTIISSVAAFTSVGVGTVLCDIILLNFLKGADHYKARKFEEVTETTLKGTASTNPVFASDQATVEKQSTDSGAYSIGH
The experiment in a line: Antagonist activity at P2X3 receptor in rat DRG neurons at -70 mV holding potential by whole cell patch clamp method.

As usually defined, the IC50 is the midpoint of a concentration-inhibition curve. By inhibition is commonly meant the relative decrease from the control value, in per cent.

Activity calls are given as the source filed them. No cut-off for these calls is given here.

`Nc1c(S(=O)(=O)O)cc(Nc2ccc(S(=O)(=O)O)c(Nc3nc(Cl)nc(Cl)n3)c2)c2c1C(=O)c1ccccc1C2=O`: the IC50 worked out at 570 nM at P2X purinoceptor 1 [1] and 4700 nM on P2X purinoceptor 1 [2].
As to `O=C(CC12CC3CC(CC(C3)C1)C2)Nc1cccc2nc(-c3ccc(C(=O)O)cc3)ccc12`, the inhibition in [3] came to 93%; in data set [6], 87%. Also, the figures for the IC50 at P2X purinoceptor 7 [4] and at P2X purinoceptor 7 [15] were 25 nM and 8 nM, respectively. Moreover, in [5], the Papp at 4 h, 50 µM fell in the range of 8.44 to 8.46 ×10⁻⁶ cm/s. Further, in the data set listed under Homo sapiens [7], the outcome was inactive. Moreover, the figures for the remaining at 0.5 h, 1 µM in data set [8], in [12] and in data set [16] were 40.5%, 10.9% and 8.1%, respectively. In addition, the Kinetic_solubility entry in [9], in data set [10] and in data set [14] was “Soluble” in each case. Besides, the inhibition entry in the data set filed under Homo sapiens [11] was “inactive”. In addition, the viability at 10 µM in data set [13] is 94%.
Consider `O=C(Nc1cc(C(=O)Nc2ccc(S(=O)(=O)O)cc2)cc(C(=O)Nc2ccc(S(=O)(=O)O)cc2)c1)Nc1cc(C(=O)Nc2ccc(S(=O)(=O)O)cc2)cc(C(=O)Nc2ccc(S(=O)(=O)O)cc2)c1`, for which 500 nM corresponded to half-maximal inhibition at P2X purinoceptor 3 (IC50).
